The IC50 is the concentration that gives 50% inhibition. A higher IC50 goes with a need for much substance.

IC50 data for 23 compounds are collected here from patent publication US20240018157A1, “CYCLIC COMPOUNDS AND METHODS OF USING SAME” (Schrödinger, Inc., priority 2019, published 2024).

The test concerns the target full-length MALT1 protein His-MALT1(1-824) (Homo sapiens (Human), UniProt Q9UDY8). Briefly: MALT1 protease assay, Assay 2 (1 nM MALT1, Ac-LRSR-AMC substrate). It is filed as biochemical. To be noted: 1 nM MALT1, 50 μM Ac-LRSR-AMC, 2 h pre-incubation, 8 hr incubation at RT. Here is the method:
MALT1 protease activity was assessed in an in vitro assay using a tetrapeptide as substrate and full-length MALT1 protein His-MALT1(1-824) purified from baculovirus-infected insect cells.
The final assay buffer includes 1 nM (Assay 2) or 2 nM (Assay 1) of MALT1 full-length protein, 50 μM Ac-LRSR-AMC substrate, 50 mM Tris pH 7.5, 600 mM Sodium Citrate, 1 mM DTT, 1 mM EDTA, and 0.05% BSA in 384-well plate format using black microtiter square well plates (Optiplate 384-F, Perkin Elmer).
Test compounds were dissolved in 100% DMSO at stock of 10 mM, with final DMSO concentration 0.1%. Test compounds were pre-incubated with MALT1 protein for 2 h at room temperature. Substrate was added after the pre-incubation and fluorescence signal was measured using Envision at excitation 355 nm and emission 460 nm after 8 hr incubation at RT.
The fluorescence units were transformed to percentage of remaining activity by using the high control (HC, median of fluorescence signal from wells containing MALT1 protein, substrate, and DMSO) and low control (LC, median of fluorescence signal from wells with substrate only) with the formula below: […]
IC50 and Hill coefficient were obtained using Graph Pad Prism (Graph Pad software, Inc, USA) with non-linear regression analysis.

Molecules are shown by their SMILES.

Chain of full-length MALT1 protein His-MALT1(1-824) (Q9UDY8 whole entry): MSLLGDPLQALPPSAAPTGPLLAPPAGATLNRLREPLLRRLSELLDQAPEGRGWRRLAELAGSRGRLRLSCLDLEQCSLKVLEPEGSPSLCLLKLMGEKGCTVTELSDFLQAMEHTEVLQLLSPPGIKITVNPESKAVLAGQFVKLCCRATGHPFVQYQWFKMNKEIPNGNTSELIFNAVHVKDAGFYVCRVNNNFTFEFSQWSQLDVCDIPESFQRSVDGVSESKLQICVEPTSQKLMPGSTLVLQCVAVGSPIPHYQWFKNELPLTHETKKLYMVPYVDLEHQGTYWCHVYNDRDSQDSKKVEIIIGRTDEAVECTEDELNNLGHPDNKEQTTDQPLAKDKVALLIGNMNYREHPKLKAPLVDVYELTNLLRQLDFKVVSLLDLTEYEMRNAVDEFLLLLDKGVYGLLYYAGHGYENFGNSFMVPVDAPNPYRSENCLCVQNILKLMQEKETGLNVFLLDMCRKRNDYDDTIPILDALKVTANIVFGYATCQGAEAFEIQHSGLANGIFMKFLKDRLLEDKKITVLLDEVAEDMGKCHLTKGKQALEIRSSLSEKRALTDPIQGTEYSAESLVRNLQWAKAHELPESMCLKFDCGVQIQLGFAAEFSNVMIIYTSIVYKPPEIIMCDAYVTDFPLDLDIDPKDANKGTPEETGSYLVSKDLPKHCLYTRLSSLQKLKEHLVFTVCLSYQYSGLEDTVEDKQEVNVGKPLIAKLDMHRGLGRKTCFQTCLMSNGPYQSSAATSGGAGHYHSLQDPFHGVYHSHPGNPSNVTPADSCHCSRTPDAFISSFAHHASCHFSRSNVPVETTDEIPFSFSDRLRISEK

The compound `C[C@@]1(C(F)(F)F)CN(C(=O)Nc2cc(NC3COC3)nc(C(F)(F)F)c2)c2cnc3cc(Cl)nn3c21` [compound 99, (R)-2-chloro-8-methyl-N-(2-(oxetan-3-ylamino)-6-(trifluoromethyl)pyridin-4-yl)-8-(trifluoromethyl)-7,8-dihydro-6H-pyrazolo[1,5-a]pyrrolo[2,3-e]pyrimidine-6-carboxamide] yielded an IC50 of 100 to 1000 nM. Under `C[C@@]1(C(F)(F)F)CN(C(=O)Nc2ccnc(C(F)(F)F)c2F)c2cnc3cc(Cl)nn3c21` [compound 100, (R)-2-chloro-N-(3-fluoro-2-(trifluoromethyl)pyridin-4-yl)-8-methyl-8-(trifluoromethyl)-7,8-dihydro-6H-pyrazolo[1,5-a]pyrrolo[2,3-e]pyrimidine-6-carboxamide] stands 100 to 1000 nM; under `CN(C)c1cc(NC(=O)N2C[C@@](C)(C(F)(F)F)c3c2cnc2cc(Cl)nn32)cnn1` [compound 101, (R)-2-chloro-N-(6-(dimethylamino)pyridazin-4-yl)-8-methyl-8-(trifluoromethyl)-7,8-dihydro-6H-pyrazolo[1,5-a]pyrrolo[2,3-e]pyrimidine-6-carboxamide], 100 to 1000 nM. The compound `C[C@@]1(C(F)(F)F)CN(C(=O)Nc2cc(C(F)F)on2)c2cnc3cc(Cl)nn3c21` [compound 102, (R)-2-chloro-N-(5-(difluoromethyl)isoxazol-3-yl)-8-methyl-8-(trifluoromethyl)-7,8-dihydro-6H-pyrazolo[1,5-a]pyrrolo[2,3-e]pyrimidine-6-carboxamide] returned a concentration for half-maximal inhibition (IC50) of 100 to 1000 nM. Under `C[C@@]1(C(F)(F)F)CN(C(=O)Nc2cc(C(F)F)ncn2)c2cnc3cc(Cl)nn3c21` [compound 106, (R)-2-chloro-N-(6-(difluoromethyl)pyrimidin-4-yl)-8-methyl-8-(trifluoromethyl)-7,8-dihydro-6H-pyrazolo[1,5-a]pyrrolo[2,3-e]pyrimidine-6-carboxamide] stands 10 to 100 nM. With `C[C@@]1(C(F)(F)F)CN(C(=O)Nc2cc(C(F)F)n[nH]2)c2cnc3cc(Cl)nn3c21` [compound 107, (R)-2-chloro-N-(3-(difluoromethyl)-1H-pyrazol-5-yl)-8-methyl-8-(trifluoromethyl)-7,8-dihydro-6H-pyrazolo[1,5-a]pyrrolo[2,3-e]pyrimidine-6-carboxamide], the half-inhibitory concentration (IC50) lay within 10 to 100 nM. `C[C@@H](N)COc1cc(NC(=O)N2C[C@@](C)(C(F)(F)F)c3c2cnc2cc(Cl)nn32)cn(C(F)F)c1=O` [compound 109, (R)-N-(5-((R)-2-aminopropoxy)-1-(difluoromethyl)-6-oxo-1,6-dihydropyridin-3-yl)-2-chloro-8-methyl-8-(trifluoromethyl)-7,8-dihydro-6H-pyrazolo[1,5-a]pyrrolo[2,3-e]pyrimidine-6-carboxamide] registered an IC50 of 100 to 1000 nM.

Regarding `CN1CC(Oc2cc(NC(=O)N3C[C@@](C)(C(F)(F)F)c4c3cnc3cc(Cl)nn43)cn(C(F)F)c2=O)C1` [compound 110, (R)-2-chloro-N-(1-(difluoromethyl)-5-((1-methylazetidin-3-yl)oxy)-6-oxo-1,6-dihydropyridin-3-yl)-8-methyl-8-(trifluoromethyl)-7,8-dihydro-6H-pyrazolo[1,5-a]pyrrolo[2,3-e]pyrimidine-6-carboxamide], the IC50 lay within 100 to 1000 nM. Consider `CNc1nnc(C(F)(F)F)cc1NC(=O)N1C[C@@](C)(C(F)(F)F)c2c1cnc1cc(Cl)nn21` [compound 112, (R)-2-chloro-8-methyl-N-(3-(methylamino)-6-(trifluoromethyl)pyridazin-4-yl)-8-(trifluoromethyl)-7,8-dihydro-6H-pyrazolo[1,5-a]pyrrolo[2,3-e]pyrimidine-6-carboxamide], for which the IC50 lay within 100 to 1000 nM.

The compound `CC1(C)CN=C(c2ncc(NC(=O)N3C[C@@](C)(C(F)(F)F)c4c3cnc3cc(Cl)nn43)cc2Cl)O1` [compound 118] gave an IC50 of 10 to 100 nM. Then `CN1CC(Oc2cc(NC(=O)N3C[C@@](C)(C(F)(F)F)c4c3cnc3cc(Cl)nn43)cc(C(F)(F)F)n2)C1` [compound 121, (R)-2-chloro-8-methyl-N-(2-((1-methylazetidin-3-yl)oxy)-6-(trifluoromethyl)pyridin-4-yl)-8-(trifluoromethyl)-7,8-dihydro-6H-pyrazolo[1,5-a]pyrrolo[2,3-e]pyrimidine-6-carboxamide], with 10 to 100 nM. The compound `CN1CC(Oc2cc(NC(=O)N3C[C@@](C)(C(F)(F)F)c4c3cnc3cc(Cl)nn43)cc(C(F)F)n2)C1` [compound 130, (R)-2-chloro-N-(2-(difluoromethyl)-6-((1-methylazetidin-3-yl)oxy)pyridin-4-yl)-8-methyl-8-(trifluoromethyl)-7,8-dihydro-6H-pyrazolo[1,5-a]pyrrolo[2,3-e]pyrimidine-6-carboxamide] had an IC50 of 100 to 1000 nM.

`C[C@@]1(C(F)(F)F)CN(C(=O)Nc2cc(C(F)(F)F)n[nH]2)c2cnc3cc(Cl)nn3c21` [compound 131, (R)-2-chloro-8-methyl-8-(trifluoromethyl)-N-(3-(trifluoromethyl)-1H-pyrazol-5-yl)-7,8-dihydro-6H-pyrazolo[1,5-a]pyrrolo[2,3-e]pyrimidine-6-carboxamide] returned an IC50 of 10 to 100 nM.

With `CNc1cc(NC(=O)N2C[C@@](C)(C(F)(F)F)c3c2cnc2cc(Cl)nn32)cnc1-n1nccn1` [compound 132, (R)-2-chloro-8-methyl-N-(5-(methylamino)-6-(2H-1,2,3-triazol-2-yl)pyridin-3-yl)-8-(trifluoromethyl)-7,8-dihydro-6H-pyrazolo[1,5-a]pyrrolo[2,3-e]pyrimidine-6-carboxamide], the IC50 is 100 to 1000 nM. Under `C[C@@]1(C(F)(F)F)CN(C(=O)Nc2cc(C(F)F)nnc2C#N)c2cnc3cc(Cl)nn3c21` [compound 143, (R)-2-chloro-N-(3-cyano-6-(difluoromethyl)pyridazin-4-yl)-8-methyl-8-(trifluoromethyl)-7,8-dihydro-6H-pyrazolo[1,5-a]pyrrolo[2,3-e]pyrimidine-6-carboxamide] stands 100 to 1000 nM; under `C[C@@]1(C(F)(F)F)CN(C(=O)Nc2cc(C(F)F)nnc2C(N)=O)c2cnc3cc(Cl)nn3c21` [compound 148, (R)-N-(3-carbamoyl-6-(difluoromethyl)pyridazin-4-yl)-2-chloro-8-methyl-8-(trifluoromethyl)-7,8-dihydro-6H-pyrazolo[1,5-a]pyrrolo[2,3-e]pyrimidine-6-carboxamide], 100 to 1000 nM. `CC(C)(O)Cn1ccc(-c2ncc(NC(=O)N3C[C@@](C)(C(F)(F)F)c4c3cnc3cc(F)nn43)cc2C(F)F)n1` [compound 162, (R)-N-(5-(difluoromethyl)-6-(1-(2-hydroxy-2-methylpropyl)-1H-pyrazol-3-yl)pyridin-3-yl)-2-fluoro-8-methyl-8-(trifluoromethyl)-7,8-dihydro-6H-pyrazolo[1,5-a]pyrrolo[2,3-e]pyrimidine-6-carboxamide]: the IC50 was in the range of 10 to 100 nM. For `Cn1cc(NC(=O)N2C[C@@](C)(C(F)(F)F)c3c2cnc2cc(Cl)nn32)cn1` [compound 164, (R)-2-chloro-8-methyl-N-(1-methyl-1H-pyrazol-4-yl)-8-(trifluoromethyl)-7,8-dihydro-6H-pyrazolo[1,5-a]pyrrolo[2,3-e]pyrimidine-6-carboxamide], the half-maximal inhibitory concentration (IC50) is 100 to 1000 nM. The compound `C[C@@]1(C(F)(F)F)CN(C(=O)NC2CCC3(CC2)CC3)c2cnc3cc(Cl)nn3c21` [compound 172, (R)-2-chloro-8-methyl-N-(spiro[2.5]octan-6-yl)-8-(trifluoromethyl)-7,8-dihydro-6H-pyrazolo[1,5-a]pyrrolo[2,3-e]pyrimidine-6-carboxamide] gave an IC50 of 100 to 1000 nM. The compound `CC(C)(O)c1cnn(-c2ncc(NC(=O)N3C[C@@](C)(C(F)(F)F)c4c3cnc3cc(Cl)nn43)cc2Cl)n1` [compound 180, (R)-2-chloro-N-(5-chloro-6-(4-(2-hydroxypropan-2-yl)-2H-1,2,3-triazol-2-yl)pyridine-3-yl)-8-methyl-8-(trifluoromethyl)-7,8-dihydro-6H-pyrazolo[1,5-a]pyrrolo[2,3-e]pyrimidine-6-carboxamide] registered a 50% inhibitory concentration (IC50) of 100 to 1000 nM. `Cc1cn2ccc3c(c2n1)C(C)(C(F)(F)F)CN3C(=O)Nc1cnc(-n2nccn2)c(Cl)c1` (centres unmarked) [compound 193, N-(5-chloro-6(2H-1,2,3-triazol-2-yl)pyridin-3-yl)-2,9-dimethyl-9-(trifluoromethyl)-8,9-dihydro-7H-imidazo[1,2-a]pyrrolo[3,2-c]pyridine-7-carboxamide] registered an IC50 of 10 to 100 nM. `CN1CC[C@H](Oc2cc(OC(F)F)cc(NC(=O)N3C[C@@](C)(C(F)(F)F)c4c3cnc3cc(Cl)nn43)n2)C1` [compound 198, (R)-2-chloro-N-(4-(difluoromethoxy)-6-(((S)-1-methylpyrrolidin-3-yl)oxy)pyridin-2-yl)-8-methyl-8-(trifluoromethyl)-7,8-dihydro-6H-pyrazolo[1,5-a]pyrrolo[2,3-e]pyrimidine-6-carboxamide] returned a half-inhibitory concentration (IC50) of 10 to 100 nM.

The compound `C[C@@]1(C(F)(F)F)CN(C(=O)Nc2cnc(C(=O)N3CCC3)c(C(F)F)c2)c2cnc3cc(Cl)nn3c21` [compound 203, (R)-N-(6-(azetidine-1-carbonyl)-5-(difluoromethyl)pyridin-3-yl)-2-chloro-8-methyl-8-(trifluoromethyl)-7,8-dihydro-6H-pyrazolo[1,5-a]pyrrolo[2,3-e]pyrimidine-6-carboxamide] had a half-inhibitory concentration (IC50) of 100 to 1000 nM.
